{"source": "patent US8343729B2", "about": "“Luciferin luminescent substrate of marine ostracod crustacean and method for production thereof” (National Institute of Advanced Industrial Science and …, priority 2005, dated 2013)", "system": "Marine ostracod crustacean luciferase", "experiment": "Measurement of luminescence spectra of marine ostracod crustacean luciferins with luciferase", "format": "biochemical", "details": "luciferase 100 ng/mL, 50 mM Tris-HCl buffer (pH 7.5)", "data": [{"smiles": "CC[C@H](C)c1nc2c(/C=C/CNC(=N)N)[nH]c(-c3c[nH]c4ccccc34)cn-2c1=O", "note": "[Compound 17]", "values": [{"measurement": "shift of luminescence maximum wavelength to the long wavelength side compared with native luciferin", "setting": "spectrum integrated for 30 seconds", "value": "about 15 nm"}]}, {"smiles": "N=C(N)NCCCc1[nH]c(-c2c[nH]c3ccccc23)cn2c(=O)c(Cc3ccccc3)nc1-2", "note": "[Compound 30]", "values": [{"measurement": "direction of shift of biological luminescence wavelength compared with native luciferin (11)", "value": "shifted to the short wavelength"}]}, {"smiles": "CC(c1ccccc1)c1nc2c(CCCNC(=N)N)[nH]c(-c3c[nH]c4ccccc34)cn-2c1=O", "note": "(centres unmarked) [Compound 32]", "values": [{"measurement": "direction of shift of biological luminescence wavelength compared with native luciferin (11)", "value": "shifted to the long wavelength"}]}, {"smiles": "CCC(c1ccccc1)c1nc2c(CCCNC(=N)N)[nH]c(-c3c[nH]c4ccccc34)cn-2c1=O", "note": "(centres unmarked) [Compound 34]", "values": [{"measurement": "direction of shift of biological luminescence wavelength compared with native luciferin (11)", "value": "shifted to the long wavelength"}]}, {"smiles": "CCC(C)c1nc2c(CCCNC(=N)N)[nH]c(-c3ccc4ccccc4c3)cn-2c1=O", "note": "(centres unmarked) [Compound 36]", "values": [{"measurement": "direction of shift of biological luminescence wavelength compared with native luciferin (11)", "value": "shifted to the short wavelength"}]}]}
